Positions count from the first letter of the chain named.
Legend:
[1] = target: T1, M4 mAChR Y89A (Homo sapiens, UniProt P08173, Y89A); assay: [3H]-NMS radioligand dissociation binding, M4 mAChR Y89A; design: [3H]-NMS binding remaining vs Total Binding, MEAN: unit not given here; conditions: for [3H]-NMS binding remaining vs Total Binding, MEAN: M4 Y89A mAChR; for effect on [3H]-NMS dissociation (in words): M4 mAChR Y89A mutant
T1 construct: expressed in transfected cells
T1 sequence (P08173 1-479 Y89A): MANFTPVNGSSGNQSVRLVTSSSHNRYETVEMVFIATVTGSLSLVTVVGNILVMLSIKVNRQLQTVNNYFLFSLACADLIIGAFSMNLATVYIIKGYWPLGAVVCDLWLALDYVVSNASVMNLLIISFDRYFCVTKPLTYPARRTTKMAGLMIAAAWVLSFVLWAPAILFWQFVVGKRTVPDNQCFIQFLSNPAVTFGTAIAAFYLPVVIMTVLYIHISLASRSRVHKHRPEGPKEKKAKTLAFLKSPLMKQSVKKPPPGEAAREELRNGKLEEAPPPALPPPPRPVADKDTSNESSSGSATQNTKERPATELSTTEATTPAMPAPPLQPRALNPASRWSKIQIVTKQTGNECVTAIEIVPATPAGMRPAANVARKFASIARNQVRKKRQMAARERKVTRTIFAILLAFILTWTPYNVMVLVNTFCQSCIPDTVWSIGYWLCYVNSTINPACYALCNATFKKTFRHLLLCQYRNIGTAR
Method: (§1) Flp-In Chinese hamster ovary (CHO) (Thermo Fisher Scientific) cells stably expressing mAChR WTs or mutant constructs were cultured in Dulbecco’s modified Eagle’s medium (DMEM, Invitrogen) containing 5% foetal bovine serum (FBS; ThermoTrace) and […] of hygromycin (Roche) in a humidified incubator (37 °C, 5% CO2). Upon reaching confluence, media was removed, cells were washed with phosphate buffered saline (PBS) and harvested from tissue culture flasks using versene (PBS with 0.2 g EDTA). Cells were then pelleted through centrifugation at 350 × g for three minutes followed by resuspension in DMEM + 5% FBS. Cells were then either plated for an assay or reseeded into a tissue culture flask.

[2] = target: T2, M4 mAChR Q184A (Homo sapiens, UniProt P08173, Q184A); assay: [3H]-NMS radioligand dissociation binding, M4 mAChR Q184A; design: unit not given here
T2 construct: expressed in transfected cells
T2 sequence (P08173 1-479 Q184A): T1 sequence (P08173 1-479 Y89A) with A89Y, Q184A
Method: as §1

[3] = target: T3, M4 mAChR F186A (Homo sapiens, UniProt P08173, F186A); assay: [3H]-NMS radioligand dissociation binding, M4 mAChR F186A; conditions: for [3H]-NMS binding remaining (0 min = 100), MEAN: M4 F186A mAChR; for effect on [3H]-NMS dissociation (in words): M4 mAChR F186A mutant
T3 construct: expressed in transfected cells
T3 sequence (P08173 1-479 F186A): T1 sequence (P08173 1-479 Y89A) with A89Y, F186A
Method: as §1

[4] = target: T4, M4 mAChR L190F (Homo sapiens, UniProt P08173, L190F); assay: [3H]-NMS radioligand dissociation binding, M4 mAChR L190F; design: unit not given here
T4 construct: expressed in transfected cells
T4 sequence (P08173 1-479 L190F): T1 sequence (P08173 1-479 Y89A) with A89Y, L190F
Method: as §1

[5] = + 10uM LY2033 (Allosteric Ligand), Time 0 min (Total Binding)
[6] = + 10uM LY2033 (Allosteric Ligand), Time 30 min
[7] = + 10uM LY2033 (Allosteric Ligand), Time 60 min
[8] = + 10uM LY2033 (Allosteric Ligand), Time 90 min
[9] = + 10uM LY2033 (Allosteric Ligand), Time 120 min
[10] = + 10uM LY2033 (Allosteric Ligand), Time 180 min
[11] = + 10uM LY2033 (Allosteric Ligand), Time 300 min

COc1nc2sc(C(=O)NC3CC3)c(N)c2c(C)c1Cl [LY2033298]
[3H]-NMS binding remaining vs Total Binding, MEAN [1, 5]: 100.077
[3H]-NMS binding remaining vs Total Binding, MEAN [1, 6]: 111.396
[3H]-NMS binding remaining vs Total Binding, MEAN [1, 7]: 121.467
[3H]-NMS binding remaining vs Total Binding, MEAN [1, 8]: 123.726
[3H]-NMS binding remaining vs Total Binding, MEAN [1, 9]: 111.892
[3H]-NMS binding remaining vs Total Binding, MEAN [1, 10]: 116.814
[3H]-NMS binding remaining vs Total Binding, MEAN [1, 11]: 102.533
effect on [3H]-NMS dissociation (in words) [1]: the same effect was observed
[3H]-NMS binding remaining vs Total Binding, MEAN [2, 5]: 100
[3H]-NMS binding remaining vs Total Binding, MEAN [2, 6]: 89.0052
[3H]-NMS binding remaining vs Total Binding, MEAN [2, 7]: 100.674
[3H]-NMS binding remaining vs Total Binding, MEAN [2, 8]: 109.408
[3H]-NMS binding remaining vs Total Binding, MEAN [2, 9]: 91.4218
[3H]-NMS binding remaining vs Total Binding, MEAN [2, 10]: 88.0443
[3H]-NMS binding remaining vs Total Binding, MEAN [2, 11]: 76.9832
[3H]-NMS binding remaining (0 min = 100), MEAN ([3]; 10uM Atr + 30uM LY2033, 30 min): 80.3007
[3H]-NMS binding remaining (0 min = 100), MEAN ([3]; 10uM Atr + 30uM LY2033, 90 min): 48.89
[3H]-NMS binding remaining (0 min = 100), MEAN ([3]; 10uM Atr + 30uM LY2033, 180 min): 55.5733
[3H]-NMS binding remaining (0 min = 100), MEAN ([3]; 10uM Atr + 30uM LY2033, 300 min): 28.0247
effect on [3H]-NMS dissociation (in words) [3]: a similar effect was observed
[3H]-NMS binding remaining vs Total Binding, MEAN [4, 5]: 100
[3H]-NMS binding remaining vs Total Binding, MEAN [4, 6]: 104.676
[3H]-NMS binding remaining vs Total Binding, MEAN [4, 7]: 101.661
[3H]-NMS binding remaining vs Total Binding, MEAN [4, 8]: 96.3234
[3H]-NMS binding remaining vs Total Binding, MEAN [4, 9]: 92.5099
[3H]-NMS binding remaining vs Total Binding, MEAN [4, 10]: 89.5439
[3H]-NMS binding remaining vs Total Binding, MEAN [4, 11]: 70.7364

C[N+](C)(C)CC#CCOC1=NOCC1 [iperoxo]
[3H]-NMS binding remaining (0 min = 100), MEAN ([3]; 10uM Atr + 10 μM Iperoxo, 30 min): 78.4972
[3H]-NMS binding remaining (0 min = 100), MEAN ([3]; 10uM Atr + 10 μM Iperoxo, 90 min): 56.5181
[3H]-NMS binding remaining (0 min = 100), MEAN ([3]; 10uM Atr + 10 μM Iperoxo, 180 min): 43.1916
[3H]-NMS binding remaining (0 min = 100), MEAN ([3]; 10uM Atr + 10 μM Iperoxo, 300 min): 30.9448

CCCCCCOc1nsnc1C1=CCCN(C)C1 [xanomeline]
[3H]-NMS binding remaining vs Total Binding, MEAN ([1]; +100uM Xano, Time 30 min): 98.3579
[3H]-NMS binding remaining vs Total Binding, MEAN ([1]; +100uM Xano, Time 60 min): 102.694
[3H]-NMS binding remaining vs Total Binding, MEAN ([1]; +100uM Xano, Time 90 min): 104.852
[3H]-NMS binding remaining vs Total Binding, MEAN ([1]; +100uM Xano, Time 120 min): 120.479
[3H]-NMS binding remaining vs Total Binding, MEAN ([1]; +100uM Xano, Time 300 min): 77.2149
effect on [3H]-NMS dissociation (in words) [1]: improved ability
[3H]-NMS binding remaining vs Total Binding, MEAN ([2]; +100uM Xano, Time 30 min): 83.7482
[3H]-NMS binding remaining vs Total Binding, MEAN ([2]; +100uM Xano, Time 60 min): 84.3012
[3H]-NMS binding remaining vs Total Binding, MEAN ([2]; +100uM Xano, Time 90 min): 69.8323
[3H]-NMS binding remaining vs Total Binding, MEAN ([2]; +100uM Xano, Time 120 min): 76.4651
[3H]-NMS binding remaining vs Total Binding, MEAN ([2]; +100uM Xano, Time 180 min): 50.1077
[3H]-NMS binding remaining vs Total Binding, MEAN ([2]; +100uM Xano, Time 300 min): 18.2224
[3H]-NMS binding remaining (0 min = 100), MEAN ([3]; 10uM Atr + 30 μM Xano, 30 min): 78.1603
[3H]-NMS binding remaining (0 min = 100), MEAN ([3]; 10uM Atr + 30 μM Xano, 90 min): 48.8248
[3H]-NMS binding remaining (0 min = 100), MEAN ([3]; 10uM Atr + 30 μM Xano, 180 min): 47.3729
[3H]-NMS binding remaining (0 min = 100), MEAN ([3]; 10uM Atr + 100uM Xano, 30 min): 72.0364
[3H]-NMS binding remaining (0 min = 100), MEAN ([3]; 10uM Atr + 100uM Xano, 90 min): 60.4086
[3H]-NMS binding remaining (0 min = 100), MEAN ([3]; 10uM Atr + 100uM Xano, 180 min): 46.0676
[3H]-NMS binding remaining (0 min = 100), MEAN ([3]; 10uM Atr + 100uM Xano, 300 min): 23.3758
effect on [3H]-NMS dissociation (in words) [3]: no longer retarded
[3H]-NMS binding remaining vs Total Binding, MEAN ([4]; +100uM Xano, Time 90 min): 72.792
[3H]-NMS binding remaining vs Total Binding, MEAN ([4]; +100uM Xano, Time 180 min): 51.0423
[3H]-NMS binding remaining vs Total Binding, MEAN ([4]; +100uM Xano, Time 300 min): 24.2929
